Numbers after ± are expanded uncertainties.
Conditions: Liquid; Resistive pulse heating

| Critical pressure [kPa] | Critical temperature [K] | SMILES |
| --- | --- | --- |
| 3730 ± 120 | 606 ± 6 | CN1CCN(C)CC1 [1,4-dimethylpiperazine] |
| 4660 ± 140 | 801 ± 8 | O=C1CCCCCN1 [1-aza-2-cycloheptanone] |
| 3800 ± 120 | 646 ± 6 | CC1CNCC(C)N1 (stereo not drawn) [2,6-dimethylpiperazine] |
| 5130 ± 160 | 718 ± 7 | C[S+](C)[O-] [dimethyl sulfoxide] |
